# US20210177828A1, “TAM FAMILY KINASE /AND CSF1R KINASE INHIBITOR AND USE THEREOF” (Nanjing Transthera Biosciences Co., Ltd., priority 2018, published 2021)
# Columns and labels:
# Type in all cases: biochemical
# Axl (h) = target: T1, Axl (h) (Homo sapiens, UniProt P30530); assay: Enzymatic activity assay, Axl (h), [γ-33P]-ATP filter assay; settings: 10 μM ATP, 40 min room temperature; read-out: Inhibitory activity IC50 Axl(h)
# T1 sequence (P30530 26-894): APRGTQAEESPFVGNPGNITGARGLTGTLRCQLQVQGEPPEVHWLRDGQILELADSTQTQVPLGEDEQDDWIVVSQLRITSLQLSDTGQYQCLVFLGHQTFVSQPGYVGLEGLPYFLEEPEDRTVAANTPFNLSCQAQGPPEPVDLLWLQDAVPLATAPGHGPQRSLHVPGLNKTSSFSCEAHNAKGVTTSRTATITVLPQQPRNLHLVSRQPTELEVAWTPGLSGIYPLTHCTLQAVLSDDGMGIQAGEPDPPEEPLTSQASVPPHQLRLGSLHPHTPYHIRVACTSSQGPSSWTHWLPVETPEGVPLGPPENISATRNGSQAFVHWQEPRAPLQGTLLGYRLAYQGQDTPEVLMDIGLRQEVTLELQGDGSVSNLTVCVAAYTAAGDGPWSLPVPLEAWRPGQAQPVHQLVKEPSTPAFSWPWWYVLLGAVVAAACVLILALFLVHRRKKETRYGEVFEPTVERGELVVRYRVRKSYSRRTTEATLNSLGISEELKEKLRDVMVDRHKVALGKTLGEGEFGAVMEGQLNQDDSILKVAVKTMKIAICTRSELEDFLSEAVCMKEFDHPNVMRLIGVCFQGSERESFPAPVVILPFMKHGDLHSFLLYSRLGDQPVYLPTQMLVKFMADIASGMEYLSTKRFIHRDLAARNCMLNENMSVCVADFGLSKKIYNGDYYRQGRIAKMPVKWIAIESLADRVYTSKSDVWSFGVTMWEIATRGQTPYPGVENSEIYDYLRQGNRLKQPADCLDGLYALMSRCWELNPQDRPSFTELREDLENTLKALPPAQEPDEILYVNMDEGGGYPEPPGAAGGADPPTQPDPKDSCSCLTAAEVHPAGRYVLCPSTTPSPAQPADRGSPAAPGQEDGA
# Experimental: (§1) Compounds were each dissolved in 100% DMSO to prepare stock solutions with a maximum concentration of 500 μM.
# (§2) Compound working solutions (50×) were prepared by diluting a compound stock solution to a final concentration of 500, 150, 50, 15, 5, 1.5, 0.5, 0.15 and 0.05 μM.
# An enzyme solution with a final concentration of 1.7 nM was prepared by dissolving Axl (h) enzyme in a mixture of 8 mM MOPS (pH 7.0), 0.2 mM EDTA and 250 μM KKSRGDYMTMQIG. A Mg/ATP mixture of 10 mM magnesium acetate and 10 μM [γ-^33P]-ATP was used to activate the enzymatic reaction.
# (§3) A compound working solution was added to a 384-well plate, with final concentrations of 10,000, 3,000, 1,000, 300, 100, 30, 10, 3 and 1 nM, and then different enzymatic reaction solutions prepared according to the above conditions were added. The reaction solutions were incubated at room temperature for 40 min, and then 0.5% phosphoric acid solutions were added to terminate the reaction. 10 μL of the reaction solution was added dropwise to P30 filter paper, washed 4 times with a 0.425% phosphoric acid solution and once with methanol, and then placed in a scintillation counter for detection. Gray analysis was performed on the results with Image J software, and IC50 values were calculated with GraphPad 5.0 software.
# Tyro-3 (h) = target: T2, Tyro-3 (h) (Homo sapiens, UniProt Q06418); assay: Enzymatic activity assay, Tyro-3 (h), [γ-33P]-ATP filter assay; settings: 10 μM ATP, 40 min room temperature; read-out: Inhibitory activity IC50 Tyro-3(h)
# T2 sequence (Q06418 41-890): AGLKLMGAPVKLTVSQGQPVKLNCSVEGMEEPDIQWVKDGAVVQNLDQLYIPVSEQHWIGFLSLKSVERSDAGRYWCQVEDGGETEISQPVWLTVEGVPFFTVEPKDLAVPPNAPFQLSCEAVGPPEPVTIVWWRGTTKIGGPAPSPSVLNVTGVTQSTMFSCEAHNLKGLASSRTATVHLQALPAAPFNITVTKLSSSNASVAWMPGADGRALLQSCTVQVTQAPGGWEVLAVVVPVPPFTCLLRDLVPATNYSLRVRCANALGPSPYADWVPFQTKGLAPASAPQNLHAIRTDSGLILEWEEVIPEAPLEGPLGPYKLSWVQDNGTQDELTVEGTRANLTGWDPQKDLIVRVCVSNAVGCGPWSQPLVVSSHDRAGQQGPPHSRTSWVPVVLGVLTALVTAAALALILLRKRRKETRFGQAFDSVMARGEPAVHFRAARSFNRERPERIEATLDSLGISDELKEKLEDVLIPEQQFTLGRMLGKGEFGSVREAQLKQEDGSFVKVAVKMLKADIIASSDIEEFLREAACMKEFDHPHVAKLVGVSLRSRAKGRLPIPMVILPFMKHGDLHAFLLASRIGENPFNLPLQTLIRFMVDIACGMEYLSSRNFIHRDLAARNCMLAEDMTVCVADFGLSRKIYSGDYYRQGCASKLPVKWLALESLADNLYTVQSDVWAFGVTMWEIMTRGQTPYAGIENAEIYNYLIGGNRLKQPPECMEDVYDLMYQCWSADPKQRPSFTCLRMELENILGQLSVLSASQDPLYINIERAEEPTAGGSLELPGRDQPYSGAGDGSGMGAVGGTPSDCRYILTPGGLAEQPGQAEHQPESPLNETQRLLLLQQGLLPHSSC
# Experimental: as §1, §2
# An enzyme solution with a final concentration of 38 nM was prepared by dissolving Tyro3 (h) enzyme in a mixture of 8 mM MOPS (pH 7.0), 0.2 mM EDTA, 1 mM MnCl2 and 250 μM KVEKIGEGTYGVVYK. A Mg/ATP mixture of 10 mM magnesium acetate and 10 μM [γ-^33P]-ATP was used to activate the enzymatic reaction.
# as §3
# Mer (h) = target: T3, Mer (h) (Homo sapiens, UniProt Q12866); assay: Enzymatic activity assay, Mer (h), [γ-33P]-ATP filter assay; settings: 10 μM ATP, 40 min room temperature; read-out: Inhibitory activity IC50 Mer(h)
# T3 sequence (Q12866 21-999): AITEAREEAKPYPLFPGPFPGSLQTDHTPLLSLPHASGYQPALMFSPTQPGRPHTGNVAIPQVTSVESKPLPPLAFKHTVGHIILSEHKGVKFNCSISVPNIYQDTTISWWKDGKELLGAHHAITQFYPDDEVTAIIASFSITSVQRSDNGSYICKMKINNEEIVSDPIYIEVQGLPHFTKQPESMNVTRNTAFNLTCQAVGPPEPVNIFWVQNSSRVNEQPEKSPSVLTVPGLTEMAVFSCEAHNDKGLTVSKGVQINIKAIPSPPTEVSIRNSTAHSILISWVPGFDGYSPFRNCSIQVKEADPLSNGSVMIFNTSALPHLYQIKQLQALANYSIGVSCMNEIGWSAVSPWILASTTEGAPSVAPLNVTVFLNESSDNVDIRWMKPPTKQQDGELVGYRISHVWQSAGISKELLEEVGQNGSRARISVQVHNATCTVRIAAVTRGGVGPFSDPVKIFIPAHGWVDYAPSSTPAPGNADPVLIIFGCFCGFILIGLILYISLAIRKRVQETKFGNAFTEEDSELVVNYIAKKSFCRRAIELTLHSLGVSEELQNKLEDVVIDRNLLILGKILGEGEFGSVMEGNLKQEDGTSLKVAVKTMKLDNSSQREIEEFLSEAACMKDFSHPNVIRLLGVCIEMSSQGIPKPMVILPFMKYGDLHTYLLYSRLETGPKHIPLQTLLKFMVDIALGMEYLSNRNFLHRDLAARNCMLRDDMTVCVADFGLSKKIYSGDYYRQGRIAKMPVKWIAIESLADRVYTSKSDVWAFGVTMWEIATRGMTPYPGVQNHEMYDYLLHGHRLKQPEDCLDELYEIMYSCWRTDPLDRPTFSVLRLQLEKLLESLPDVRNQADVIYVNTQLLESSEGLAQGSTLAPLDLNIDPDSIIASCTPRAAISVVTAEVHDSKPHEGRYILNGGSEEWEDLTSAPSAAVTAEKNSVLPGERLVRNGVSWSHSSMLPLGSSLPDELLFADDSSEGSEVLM
# Experimental: as §1, §2
# An enzyme solution with a final concentration of 3.1 nM was prepared by dissolving Mer (h) enzyme in a mixture of 8 mM MOPS (pH 7.0), 0.2 mM EDTA, 30 mM NaCl and 250 μM GGMEDIYFEFMGGKKK. A Mg/ATP mixture of 10 mM magnesium acetate and 10 μM [γ-^33P]-ATP was used to activate the enzymatic reaction.
# as §3
SMILES,IC50 (Axl (h)),IC50 (Tyro-3 (h)),IC50 (Mer (h))
"COc1cc2nccc(Oc3ccc(NC(=O)c4nn(CC5CCSCC5)cc(-c5ccc(C)cc5)c4=O)nc3)c2cc1OC [Compound 21, N-(5-((6,7-dimethoxyquinolin-4-yl)oxy)pyridin-2-yl)-4-oxo-1-((tetrahydro-2H-thiopyran-4-yl)methyl)-5-(p-tolyl)-1,4-dihydropyridazin-3-carboxamide]",19 nM,29 nM,1 nM
"COc1cc2nccc(Oc3cnc(NC(=O)c4cn(CC5CCSCC5)cc(-c5ccc(C)cc5)c4=O)nc3)c2cc1OC [Compound 22, N-(5-((6,7-dimethoxyquinolin-4-yl)oxy)pyrimidin-2-yl)-4-oxo-1-((tetrahydro-2H-thiopyran-4-yl)methyl)-5-(p-tolyl)-1,4-dihydropyridin-3-carboxamide]",16 nM,103 nM,5 nM
"COc1cc2nccc(Oc3cnc(NC(=O)c4nn(CC5CCSCC5)cc(-c5ccc(C)cc5)c4=O)nc3)c2cc1OC [Compound 23, N-(5-((6,7-dimethoxyquinolin-4-yl)oxy)pyrimidin-2-yl)-4-oxo-1-((tetrahydro-2H-thiopyran-4-yl)methyl)-5-(p-tolyl)-1,4-dihydropyridazin-3-carboxamide]",9 nM,33 nM,8 nM
"COc1ccc(-c2cnc(N)c(-c3ccc(NC(=O)c4cc(-c5ccc(C)cc5)cn(CC5CCOCC5)c4=O)cc3)c2)cc1OC [Compound 35, N-(4-(2-amino-5-(3,4-dimethoxyphenyl)pyridin-3-yl)phenyl)-2-oxo-1-((tetrahydro-2H-pyran-4-yl)methyl)-5-(p-tolyl)-1,2-dihydropyridin-3-carboxamide]",44 nM,,
"COc1ccc(-c2cnc(N)c(-c3ccc(NC(=O)c4cn(CC5CCOCC5)c(=O)n(-c5ccc(C)cc5)c4=O)cc3)c2)cc1OC [Compound 37, N-(4-(2-amino-5-(3,4-dimethoxyphenyl)pyridin-3-yl)phenyl)-2,4-dioxo-1-((tetrahydro-2H-pyran-4-yl)methyl)-3-(p-tolyl)-1,2,3,4-tetrahydropyrimidin-5-carboxamide]",57 nM,,
"COc1cc2nccc(O[C@H]3CC[C@@H](NC(=O)c4cn(CC5CCOCC5)cc(-c5ccc(C)cc5)c4=O)CC3)c2cc1OC [Compound 38, N-((cis)-4-((6,7-dimethoxyquinolin-4-yl)oxy)cyclohexyl)-4-oxo-1-((tetrahydro-2H-pyran-4-yl)methyl)-5-(p-tolyl)-1,4-dihydropyridin-3-carboxamide]",22 nM,,
